Earlier results as cited in patent publication US20070281881A1, “Methods And Compositions Comprising Non-Peptide Small Molecules That Solubilize Beta Amyloid Peptide Fiber” (priority 2004, published 2007).

Key:
Aβ = Aβ (Homo sapiens, UniProt P05067); settings: result in words, from cited studies
[1] = result in words, from cited studies

Sequence of Aβ (P05067 672-713 limits assumed): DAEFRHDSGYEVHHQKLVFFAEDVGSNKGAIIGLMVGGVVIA

| SMILES | binding to Aβ and effect on Aβ aggregation (Aβ) | crossing of the blood brain barrier [1] |
| --- | --- | --- |
| COc1ccc2[nH]cc(CCNC(C)=O)c2c1 [Melatonin] | binds and slows down Aβ aggregation | easily crosses the blood brain barrier |
| CN1CCCC1c1cccnc1 (stereo not drawn) [nicotine] | binds and slows down Aβ aggregation | – |
